# Laboratory results taken from PMC6864781, “Synthesis, Antitumor Activity, and Docking Analysis of New Pyrido[3′,2′:4,5]furo(thieno)[3,2-d]pyrimidin-8-amines” (Molecules, 2019).
# Entries after “also recorded” stand apart in the source; their conditions may differ.
# Assays:
# Assay type in all cases: cell-based
# [1] = test system: DNA of tumor sarcoma 180 (S-180); experiment: Influence on methylation of DNA of tumor sarcoma 180 in vitro (5-MC content); conditions: 3 × 10^−6 M compound, 24 h at 37 °C; for inhibition at 3 µM: reduction of 5-MC content vs S-180 control, read-out: Inhibition of the Level of DNA Methylation; for Content of Bases in DNA, 5-MC ± ζ: tumor homogenate, S-180 control 0.64 ± 0.02, seven determinations; for Effect on tumor DNA methylation (in words): S-180
# Experimental: It is known that DNA methylation in cancer plays a variety of roles, helping to change the healthy regulation of gene expression to a disease pattern. DNA hypermethylation in neoplasia is a specific epigenetic sign that can guide the diagnosis and treatment of this disease. We studied the effect of synthesized substances on tumor DNA in vitro. After the incubation of tumor cells with the studied compounds, the isolated DNA was hydrolyzed to nitrogen bases. In the studied DNA, the nucleotide composition (guanine (G), cytosine (C), 5-methylcitosine (5-MC), adenine (A), thymine (T)) complied with the rules of Chargaff. Isolated DNA belonged to the AT type, and the amount of basic bases (G + C + 5-MC) within them was 42.24–44.64 mol %, which is typical for eukaryotic DNA. Almost the same content of basic bases (G, C, A, and T) was observed, while a clear difference between DNA samples was found only in relation to the content of 5-MC, which indicated the demethylating ability of the compounds.
# The influence of synthesized compounds on the methylation of DNA of tumor sarcoma 180 (S-180) was studied in vitro. Transplanted S-180 was isolated from animals after slaughter by decapitation under ether narcosis. A 3 × 10^−6 M solution of compounds (solvent: carboxymethylcellulose) was added to the tumor homogenate (12.5 mL of a solution per 10 g of tumor), and the mixture was incubated for 24 h at 37 °C. After the incubation, tumor DNA was extracted using the phenol–chloroform method. Hydrolysis to the nitrogen bases was carried out in sealed glass ampoules in 85% formic acid at 176 °C for 1 h (0.1 mL of acid per 1 mg of DNA). The separation of nitrogen bases (guanine (G), cytosine (C), 5-methylcitosine (5-MC), adenine (A), and thymine (T)) was produced by thin-layer chromatography in the solvent n-butanol/water/ammonia. Spectrophotometry of the eluates of all bases was made against eluates from the respective control areas of the chromatograms. In our studies, the well-known antitumor drug doxorubicin (manufactured by EBEWE Pharma Ges.m.b.H. Nfg. KG, 4866 Unterach, Austria) was used as a standard preparation. The data were statistically processed using Student’s and Fischer’s tests (p < 0.05).
# HeLa cells = experiment: Cell viability (MTT) assay, HeLa; conditions: Homo sapiens, 72 h, read-out: IC50, antiproliferative activity
# Experimental: (§1) Vero and HeLa cells were seeded in a 96-well culture plate at a density of 20,000 cells/well. The plates were preincubated in a 5% CO2/95% air-humidified atmosphere at 37 °C for 24 h to allow for adaptation of the cells prior to the addition of the test compounds. All compounds were dissolved in dimethyl sulfoxide (DMSO) prior to dilution (1 mg/mL stock solution). The 50% inhibitory concentration (IC50) was determined over a range of concentrations (0.5 μg/mL to 10 μg/mL). All cells were incubated for 72 h, and then cell viability was estimated using an MTT (3-(4,5-dimethylthiazol-2-yl)-2,5-diphenyltetrazolium bromide) assay, as previously described. Colorimetric measurements were performed on a microplate reader at 570 nm (Tecan Spectra II, Switzerland). The percentage of viable cells was calculated for each concentration as ((ODT/ODC) × 100), where ODT and ODC corresponded to the absorbance of the treated and control cells, respectively. The IC50 was calculated by using linear regression analysis.
# Vero cells = experiment: Cell viability (MTT) assay, Vero; conditions: Chlorocebus sabaeus, Vero (normal cells), 72 h, read-out: IC50, antiproliferative activity
# Experimental: as §1
smiles,measurement,setting,value
CC(C)Cc1nc2oc3c(NCCCO)ncnc3c2c2c1COC(C)(C)C2 [Compound 7k],inhibition at 3 µM,[1],18.8%
same,"Content of Bases in DNA, 5-MC ± ζ",[1],0.52 ± 0.01 mol %
"CC(C)CNc1ncnc2c1sc1nc(-c3ccco3)c3c(c12)CCCC3 [Compound 5d, 5-(2-Furyl)-N-isobutyl-1,2,3,4-tetrahydropyrimido[4′,5′:4,5]thieno[2,3-c]isoquinolin-8-amine]",inhibition at 3 µM,[1],34.4%
same,"Content of Bases in DNA, 5-MC ± ζ",[1],0.42 ± 0.03 mol %
"CC(C)c1nc2sc3c(NCC4CCCO4)ncnc3c2c2c1COC(C)(C)C2 (stereo not shown) [Compound 7m, 5-Isopropyl-2,2-dimethyl-N-(tetrahydrofuran-2-ylmethyl)-1,4-dihydro-2H-pyrano[4″,3″:4′,5′]pyrido[3′,2′:4,5]thieno[3,2-d]pyrimidin-8-amine]",inhibition at 3 µM,[1],37.5%
same,"Content of Bases in DNA, 5-MC ± ζ",[1],0.40 ± 0.02 mol %
"CCN(CC)CCNc1ncnc2c1oc1nc(C(C)C)c3c(c12)CC(C)(C)OC3 [Compound 7c, N,N-Diethyl-N′-(5-isopropyl-2,2-dimethyl-1,4-dihydro-2H-pyrano[4″,3″:4′,5′]pyrido[3′,2′:4,5]furo[3,2-d]pyrimidin-8-yl)ethane-1,2-diamine]",inhibition at 3 µM,[1],42.2%
same,"Content of Bases in DNA, 5-MC ± ζ",[1],0.37 ± 0.01 mol %
"CC(C)c1nc2oc3c(NCC4CCCO4)ncnc3c2c2c1COC(C)(C)C2 (stereo not shown) [Compound 7f, 5-Isopropyl-2,2-dimethyl-N-(tetrahydrofuran-2-ylmethyl)-1,4-dihydro-2H-pyrano[4″,3″:4′,5′]pyrido[3′,2′:4,5]furo[3,2-d]pyrimidin-8-amine]",inhibition at 3 µM,[1],21.9%
same,"Content of Bases in DNA, 5-MC ± ζ",[1],0.50 ± 0.02 mol %
"CCN(CC)CCNc1ncnc2c1sc1nc(-c3ccco3)c3c(c12)CCCC3 [Compound 5e, N,N-Diethyl-N′-[5-(2-furyl)-1,2,3,4-tetrahydropyrimido[4′,5′:4,5]thieno[2,3-c]isoquinolin-8-yl]ethane-1,2-diamine]",inhibition at 3 µM,[1],28.1%
same,"Content of Bases in DNA, 5-MC ± ζ",[1],0.46 ± 0.02 mol %
CC(C)c1nc2oc3c(NCCN4CCOCC4)ncnc3c2c2c1COC(C)(C)C2 [Compound 7d],inhibition at 3 µM,[1],48.4%
same,"Content of Bases in DNA, 5-MC ± ζ",[1],0.33 ± 0.01 mol %
"c1coc(-c2nc3sc4c(N5CCCCC5)ncnc4c3c3c2CCCC3)c1 [Compound 5a, 5-(2-Furyl)-8-piperidin-1-yl-1,2,3,4-tetrahydropyrimido[4′,5′:4,5]thieno[2,3-c]isoquinoline]",inhibition at 3 µM,[1],40.6%
same,"Content of Bases in DNA, 5-MC ± ζ",[1],0.38 ± 0.02 mol %
"CC(C)Cc1nc2oc3c(NCCO)ncnc3c2c2c1COC(C)(C)C2 [Compound 7j, 2-[(5-Isobutyl-2,2-dimethyl-1,4-dihydro-2H-pyrano[4″,3″:4′,5′]pyrido[3′,2′:4,5]furo[3,2-d]pyrimidin-8-yl)amino]ethanol]",Effect on tumor DNA methylation (in words),[1],did not affect DNA methylation; also recorded: no activity
"CCOC(=O)N1CCN(c2ncnc3c2sc2nc(C(C)C)c4c(c23)CC(C)(C)OC4)CC1 [Compound 7l, Ethyl 4-(5-isopropyl-2,2-dimethyl-1,4-dihydro-2H-pyrano[4″,3″:4′,5′]pyrido[3′,2′:4,5]thieno[3,2-d]pyrimidin-8-yl)piperazine-1-carboxylate]",inhibition at 3 µM,[1],29.7%
same,"Content of Bases in DNA, 5-MC ± ζ",[1],0.45 ± 0.03 mol %
CC(C)c1nc2oc3c(NCCN(C)C)ncnc3c2c2c1COC(C)(C)C2 [Compound 7b],inhibition at 3 µM,[1],62.5%
same,"Content of Bases in DNA, 5-MC ± ζ",[1],0.24 ± 0.01 mol %
same,IC50,HeLa cells,5.4 ± 0.2 µg/mL
same,IC50,Vero cells,13.7 ± 0.4 µg/mL
"CC(C)c1nc2oc3c(NCc4ccco4)ncnc3c2c2c1COC(C)(C)C2 [Compound 7g, N-(2-Furylmethyl)-5-isopropyl-2,2-dimethyl-1,4-dihydro-2H-pyrano[4″,3″:4′,5′]pyrido[3′,2′:4,5]furo[3,2-d]pyrimidin-8-amine]",inhibition at 3 µM,[1],40.6%
same,"Content of Bases in DNA, 5-MC ± ζ",[1],0.38 ± 0.02 mol %
"c1coc(-c2nc3sc4c(N5CCOCC5)ncnc4c3c3c2CCCC3)c1 [Compound 5c, 5-(2-Furyl)-8-morpholin-4-yl-1,2,3,4-tetrahydropyrimido[4′,5′:4,5]thieno[2,3-c]isoquinoline]",inhibition at 3 µM,[1],23%
same,"Content of Bases in DNA, 5-MC ± ζ",[1],0.49 ± 0.02 mol %
"COc1cccc2c1C(=O)c1c(O)c3c(c(O)c1C2=O)C[C@@](O)(C(=O)CO)C[C@@H]3O[C@H]1C[C@H](N)[C@H](O)[C@H](C)O1 [Doxorubicin, doxorubicin, reference compound]",inhibition at 3 µM,[1],67.2%
same,"Content of Bases in DNA, 5-MC ± ζ",[1],0.21 ± 0.01 mol %
CC(C)c1nc2oc3c(NCc4cccnc4)ncnc3c2c2c1COC(C)(C)C2 [Compound 7h],inhibition at 3 µM,[1],34.4%
same,"Content of Bases in DNA, 5-MC ± ζ",[1],0.42 ± 0.02 mol %
"c1coc(-c2nc3sc4c(NCC5CCCO5)ncnc4c3c3c2CCCC3)c1 (stereo not shown) [Compound 5f, 5-(2-Furyl)-N-(tetrahydrofuran-2-ylmethyl)-1,2,3,4-tetrahydropyrimido[4′,5′:4,5]thieno[2,3-c]isoquinolin-8-amine]",inhibition at 3 µM,[1],89.1%
same,"Content of Bases in DNA, 5-MC ± ζ",[1],0.07 ± 0.02 mol %
same,IC50,HeLa cells,4.4 ± 0.3 µg/mL
same,IC50,Vero cells,6.4 ± 0.4 µg/mL
"CC1CCN(c2ncnc3c2sc2nc(-c4ccco4)c4c(c23)CCCC4)CC1 [Compound 5b, 5-(2-Furyl)-8-(4-methylpiperidin-1-yl)-1,2,3,4-tetrahydropyrimido[4′,5′:4,5]thieno[2,3-c]isoquinoline]",inhibition at 3 µM,[1],60.9%
same,"Content of Bases in DNA, 5-MC ± ζ",[1],0.25 ± 0.02 mol %
same,IC50,HeLa cells,8.4 ± 0.2 µg/mL
same,IC50,Vero cells,16.8 ± 0.6 µg/mL
"COc1ccc(CCNc2ncnc3c2oc2nc(C(C)C)c4c(c23)CC(C)(C)OC4)cc1OC [Compound 7e, N-[2-(3,4-Dimethoxyphenyl)ethyl]-5-isopropyl-2,2-dimethyl-1,4-dihydro-2H-pyrano[4″,3″:4′,5′]pyrido[3′,2′:4,5]furo[3,2-d]pyrimidin-8-amine]",inhibition at 3 µM,[1],56.2%
same,"Content of Bases in DNA, 5-MC ± ζ",[1],0.28 ± 0.01 mol %
CC(C)c1nc2oc3c(NCCCN(C)C)ncnc3c2c2c1COC(C)(C)C2 [Compound 7i],Effect on tumor DNA methylation (in words),[1],did not affect DNA methylation; also recorded: loss of activity
CC(C)c1nc2oc3c(NCCO)ncnc3c2c2c1COC(C)(C)C2 [Compound 7a],"Content of Bases in DNA, 5-MC ± ζ",[1],0.85 ± 0.03 mol %
